Tests used:
Gal4-RORγ-LBD = target: T1, Gal4-RORγ-LBD (Homo sapiens, UniProt P51449); test: Gal4-RORγ Luciferase Reporter Assay in HEK-293T Cells; assay type: cell-based; details: HEK-293 cells
T1 construct: expressed in transfected cells; host or cells: HEK-293 cells (pcDNA3.1neo plasmid)
T1 sequence (P51449 269-508 limits assumed): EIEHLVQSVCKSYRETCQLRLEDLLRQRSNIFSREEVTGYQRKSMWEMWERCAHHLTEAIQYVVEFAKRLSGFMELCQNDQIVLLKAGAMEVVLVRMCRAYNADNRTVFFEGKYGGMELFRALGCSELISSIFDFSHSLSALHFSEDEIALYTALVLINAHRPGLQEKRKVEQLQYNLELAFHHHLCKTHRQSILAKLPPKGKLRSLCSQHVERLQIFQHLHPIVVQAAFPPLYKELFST
Protocol: Assay procedures and results are described below.
In the following protocol, HEK-293 cells were transfected with a construct comprising the Gal4 DNA binding domain fused to the ligand binding domain of RORγ (Gal4-RORγ-LBD) in a pcDNA3.1neo plasmid, and also with a reporter construct comprising pGL4.31 Gal4-luciferase (Promega). Control cells were prepared similarly using empty pcDNA3.1neo and pGL4.31 vectors.
Trans-IT reagent (Mirus, 60 μL) at room temperature was added drop wise to OptiMEM (Invitrogen, 1.5 ml). This reagent mixture was mixed by inversion then incubated for 5 to 30 minutes at room temperature. It then was added to a solution of both expression vectors (5 μg each), mixed, and incubated at room temperature for about 20 minutes. HEK-293 cells were harvested from incubation flasks by removing the media, treating with TrypLE Express (Invitrogen), and incubating until the cells detached from the bottom of the flask (approximately 2-5 minutes). 10 Million cells were collected by centrifugation and re-suspended in 10 mL of Dulbecco's Modified Eagle Medium, High Glucose (DMEM, Invitrogen) containing 10% Fetal Bovine Serum and 100 IU each of penicillin and streptomycin. The re-suspended cells and the transfection mixture were added to a T75 flask, mixed and incubated overnight at 37° C. and 5% CO2.
The cells were harvested as described above, counted, and centrifuged to obtain the desired number of cells, then re-suspended in complete growth media at 0.75×10^6 cells/mL. The RORγ antagonist, ursolic acid, was added to the cells at a final concentration of 2 μM. Cells were plated at 20 μL of cell suspension/well (10,000-15,000 cells/well) in white tissue culture treated 384 well plates. Test compounds were dissolved at 10 mM in DMSO then diluted into complete growth medium to 5× the final intended test concentration. These drug stock solutions, 5 μL/well were added to the tissue culture plate. The final DMSO concentration was 0.2%. The plates were briefly centrifuged then incubated overnight at 37° C. and 5% CO2. To conduct the assay, the tissue culture plates were allowed to equilibrate to room temperature and One-Glo luciferase reagent (Promega, 25 μL/well) was added. The plates were briefly centrifuged then incubated at room temperature for 10 minutes. The luciferase intensity was read on an Envision plate reader (Perkin Elmer). […] The luciferase signal in the absence of ursolic acid or test compound is defined at 100. The Max Response is the upper plateau in the signal as determined by line-fit using a 4-parameter logistic model in PRISM (GraphPad).

RORγ-LBD = target: T2, RORγ-LBD (Homo sapiens, UniProt P51449); test: RORγ-Ligand Binding Domain (LBD) TR-FRET Assay; assay type: biochemical;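 for TR-FRET Assay Max Response: 665/615 nm ratio relative to signal without ursolic acid or compound set at 100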
T2 construct: made in house; host or cells: SF9 cells (baculovirus)
T2 sequence (P51449 269-508 limits assumed): T1 sequence (P51449 269-508 limits assumed)
Outline: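 SF9 lysate containing His-RORγ-LBD, ~3 nM final; coactivator peptide biotin-SRC1 LXXLL, 200 nM final; ursolic acid 2 μM final; DMSO 1% final; Tris pH 7.0 buffer with KCl, EDTA, DTT, BSA. TR-FRET format.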

[1] = luciferase reporter, with 2 μM ursolic acid

Row | Compound | EC50 (Gal4-RORγ-LBD; [1]) | Gal4-RORγ Assay Max Response (Gal4-RORγ-LBD; [1]) | EC50 (RORγ-LBD) | TR-FRET Assay Max Response (RORγ-LBD) | other results
1 | COc1ccnc(-c2ccc3c(c2)N(S(=O)(=O)c2cccc(C(F)(F)F)c2)C[C@H](CCC(=O)O)O3)n1 [Compound 4C, (S)-3-(6-(4-methoxypyrimidin-2-yl)-4-((3-(trifluoromethyl)-phenyl)sulfonyl)-3,4-dihydro-2H-benzo[b][1,4]oxazin-2-yl)propanoic acid] | 500 to 5000 nM | ** (The symbol “**” indicates a value in the range of greater than 90 to 150) | – | – | –
2 | O=C(O)CC[C@H]1CN(S(=O)(=O)c2cccc(C(F)(F)F)c2)c2cc(-c3cc(F)cc(F)c3)c(Cl)cc2O1 [Compound 22L, (S)-3-(7-chloro-6-(3,5-difluoro-phenyl)-4-((3-(trifluoromethyl)-phenyl)sulfonyl)-3,4-dihydro-2H-benzo[b][1,4]oxazin-2-yl)propanoic acid] | – | – | – | – | EC50 (Gal4-RORγ-LBD; 2 μM ursolic acid): < 500 nM; Gal4-RORγ Assay Max Response (Gal4-RORγ-LBD; 2 μM ursolic acid): ** (The symbol “**” indicates a value in the range of greater than 90 to 150)
3 | COc1cc(S(=O)(=O)N2C[C@H](CNC(=O)C(C)(C)O)Oc3ccc(-c4cccc(C(F)(F)F)n4)cc32)ccc1F [Compound 30T, (S)-N-((4-((4-fluoro-3-methoxyphenyl)sulfonyl)-6-(6-(trifluoromethyl)pyridin-2-yl)-3,4-dihydro-2H-benzo[b][1,4]oxazin-2-yl)methyl)-2-hydroxy-2-methylpropanamide] | < 500 nM | * (The symbol “*” indicates a value in the range of 25 to 90) | – | – | –
4 | CC(C)c1cccc(S(=O)(=O)N2C[C@H](CC(C)(C)C(=O)O)Oc3ccc(-c4cc(F)ccc4F)cc32)c1 [Compound 32M, (S)-3-(6-(2,5-difluorophenyl)-4-((3-isopropylphenyl)sulfonyl)-3,4-dihydro-2H-benzo[b][1,4]oxazin-2-yl)-2,2-dimethylpropanoic acid] | 500 to 5000 nM | ** (The symbol “**” indicates a value in the range of greater than 90 to 150) | – | – | –
5 | COc1cc(S(=O)(=O)N2C[C@H](CNS(=O)(=O)N3CCCC3)Oc3ccc(-c4cc(F)ccc4F)cc32)ccc1F [Compound 45F, (S)-N-((6-(2,5-difluorophenyl)-4-((4-fluoro-3-methoxyphenyl)sulfonyl)-3,4-dihydro-2H-benzo[b][1,4]oxazin-2-yl)methyl)pyrrolidine-1-sulfonamide] | – | – | – | – | EC50 (Gal4-RORγ-LBD; 2 μM ursolic acid): < 500 nM
6 | CC(=O)NC1(C[C@H]2CN(S(=O)(=O)c3cccc(C(F)(F)F)c3)c3cc(-c4cc(F)cc(OC(F)F)c4)ccc3O2)CCOCC1 [Compound 78I, (S)-N-(4-((6-(3-(difluoro-methoxy)-5-fluorophenyl)-4-((3-(trifluoromethyl)phenyl)sulfonyl)-3,4-dihydro-2H-benzo[b][1,4]-oxazin-2-yl)methyl)tetrahydro-2H-pyran-4-yl)acetamide] | – | – | < 500 nM | *** (The symbol “***” indicates a value in the range of greater than 150 to 200) | –
7 | CC(=O)NC1(C[C@H]2CN(S(=O)(=O)c3cccc(C(F)(F)F)c3)c3cc(-c4cc(F)ccc4F)ccc3O2)CCOCC1 [Compound 78J, (S)-N-(4-((6-(2,5-difluorophenyl)-4-((3-(trifluoromethyl)phenyl)-sulfonyl)-3,4-dihydro-2H-benzo[b][1,4]oxazin-2-yl)methyl)tetrahydro-2H-pyran-4 yl)acetamide] | – | – | < 500 nM | *** (The symbol “***” indicates a value in the range of greater than 150 to 200) | –
8 | C[C@@H](CC(=O)O)[C@H]1CN(S(=O)(=O)c2cccc(C(F)(F)F)c2)c2cc(-c3cc(F)cc(OC(F)F)c3)ccc2O1 [Compound 80A, (S)-3-((S)-6-(3-(difluoro-methoxy)-5-fluorophenyl)-4-((3-(trifluoromethyl)phenyl)sulfonyl)-3,4-dihydro-2H-benzo[b][1,4]-oxazin-2-yl)butanoic acid] | – | – | < 500 nM | *** (The symbol “***” indicates a value in the range of greater than 150 to 200) | –

Source: patent US10611740B2, “Aryl dihydro-2H-benzo[b][1,4]oxazine sulfonamide and related compounds for use as agonists of RORγ and the treatment of disease” (Lycera Corporation, priority 2015, dated 2020)
